{"source": "patent US20130197088A1", "about": "“Compositions and Methods for Combinations of Oligoamines with 2-Difluoromethylornithine (DFMO)” (priority 2010, published 2013)", "key": {"ODC [1]": {"target": "T1, ODC (Homo sapiens, UniProt P11926)", "T1 sequence (P11926 1-461)": "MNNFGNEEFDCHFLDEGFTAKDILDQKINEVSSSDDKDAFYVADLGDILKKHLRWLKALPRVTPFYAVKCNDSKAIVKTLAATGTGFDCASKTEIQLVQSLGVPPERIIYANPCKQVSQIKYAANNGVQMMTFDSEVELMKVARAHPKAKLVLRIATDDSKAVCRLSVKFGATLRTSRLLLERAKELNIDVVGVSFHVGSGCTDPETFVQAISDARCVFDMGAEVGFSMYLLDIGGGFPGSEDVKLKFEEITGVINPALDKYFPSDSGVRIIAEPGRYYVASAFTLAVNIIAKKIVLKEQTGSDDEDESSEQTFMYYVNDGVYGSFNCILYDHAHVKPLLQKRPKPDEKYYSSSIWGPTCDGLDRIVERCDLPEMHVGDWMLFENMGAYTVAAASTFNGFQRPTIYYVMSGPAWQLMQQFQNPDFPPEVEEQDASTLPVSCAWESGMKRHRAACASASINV", "experiment": "Inhibition of ODC activity by DFMO enantiomers", "type": "biochemical", "experimental": "The use of D-DFMO or enriched D-isomer mixtures can overcome many of the problems associated with the use of racemic (50/50) D,L-DFMO. D-DFMO or enriched D-DFMO isomer mixtures may be administered at a dosage higher than a racemic mixture, due to lower anticipated toxicity associated with the D enantiomer. In three separate studies using concentrations from 0.6 μM to 80 μM D-, L-, and D,L-DFMO, the effective concentration level of each which inhibits 50% of the ODC activity (Ki) can be determined. Both enantiomers, as well as the racemic mixture, were inhibitory."}, "ODC [2]": {"target": "T1, ODC", "conditions": "concentrations from 0.6 μM to 80 μM; cited from earlier work"}, "[3]": {"conditions": "guinea pigs; cited from earlier work"}, "HCT116 cells": {"test_system": "HCT116 cells", "experiment": "Intracellular polyamine pools by high pressure liquid chromatography after DFMO / PG-11144 treatment", "type": "cell-based, human", "experimental": "DFMO (2- or α-difluoromethylornithine) can be obtained from Merrell Dow Pharmaceutical Inc. (Cincinnati, Ohio). Polyamine analogues are provided by Progen Pharmaceuticals Ltd. (Queensland, Australia). Stock solutions of each compound are diluted with medium to the desired concentrations for specific experiments. HCT116 colorectal carcinoma cells are maintained in McCoy's 5A medium supplemented with 9% FBS (Atlanta Biologicals, Lawrenceville, Ga.) and 1% penicillin/streptomycin (Mediatech, Manassas, Va.), and grown at 37° C. in 5% CO2 atmosphere. For experiments, HCT116 cells are first treated for 24 hours with 5 mM DFMO followed by another 24 hours treatment of replenished 5 mM DFMO and polyamine analogues in the indicated doses alone or simultaneously. Intracellular polyamine concentrations are determined by high pressure liquid chromatography.\nA mixture of both D-enantiomer of DFMO and L-enantiomer of DFMO is used to generate data in Table 1."}, "[4]": {"test_system": "six human tumors (three mammary carcinomas, a malignant melanoma, a bladder carcinoma, an endocervical carcinoma)", "conditions": "after DFMO treatment; cited from earlier work"}, "[5]": {"test_system": "colon adenomas and carcinomas", "conditions": "animal models of colon carcinogenesis; cited from earlier work"}, "SFRP2 in HCT116 cells": {"test_system": "SFRP2 in HCT116 cells", "experiment": "Re-expression of aberrantly silenced SFRP2, qPCR", "type": "cell-based, human", "experimental": "HCT116 cells are first treated for 24 hour with 5 mM DFMO followed by another 24 hour treatment of replenished 5 mM DFMO and oligoamines (PG-11144 and PG-11150 for panel A, PG-11157, PG 11158 and PG-11159 for panel B) alone or simultaneously. RNA is extracted using TRIzol reagents and first-strand cDNA is synthesized using M-MLV reverse transcriptase with an oligo(dT) primer (Invitrogen). qPCR for SFRP2 is performed in a MyiQ single color real-time PCR machine with GAPDH as an internal control. The SFRP2 primers used for qPCR are: sense, 5′ AAGCCTGCAAAAATAAAAATGATG (SEQ ID NO: 1); antisense, 5′ TGTAAATGGTCTTGCTCTTGGTCT (SEQ ID NO: 2) (annealing at 53° C.). The quantified results are the mean of triplicate treatments. The transcript level for control samples was set to a value of 1. S.D. is indicated by the error bars.\nHCT116 cells are first treated for 24 hours with 5 mM DFMO followed by another 24 hours treatment of replenished 5 mM DFMO and PG-11144 in the indicated doses alone or simultaneously. RNA isolation and qPCR are performed. The quantified results are the means of triplicate treatments with S.D. as indicated. The transcript level for control samples is set to a value of 1.\nRNA Isolation and qPCR: RNA is extracted using TRIzol reagents (Invitrogen, Carlsbad, Calif.). First-strand cDNA is synthesized using M-MLV reverse transcriptase with an oligo(dT) primer (Invitrogen). qPCR is performed in a MyiQ single color real-time PCR machine (Bio-Rad, Hercules, Calif.) with GAPDH as an internal control. The SFRP2 primers used are: sense, 5′ AAGCCTGCAAAAATAAAAATGATG (SEQ ID NO: 1); antisense, 5′ TGTAAATGGTCTTGCTCTTGGTCT (SEQ ID NO: 2) (annealing at 53° C.)."}, "[6]": {"test_system": "H3K4me2 at the promoter of SFRP2 in HCT116 cells", "experiment": "ChIP analysis of H3K4me2 at the SFRP2 promoter", "type": "cell-based, human", "conditions": "2.5 μM PG-11144 alone", "experimental": "HCT116 cells are first treated for 24 hours with 5 mM DFMO followed by another 24 hours treatment of replenished 5 mM DFMO and 2.5 μM PG-11144 alone or simultaneously. Chromatin immunoprecipitation (CHIP) analysis is performed using EZ-chip kit (Millipore). In brief, cells are exposed to 1% formaldehyde to cross-link proteins, and two million cells are used for each CHIP assay. Antibodies against H3K4me2, and for control, H3 are used as indicated for immunoprecipitation of protein-DNA complexes. Quantitative ChIP is performed using qPCR on the MyiQ single color real-time PCR machine. The PCR primer sets used for amplification of precipitated SFRP2 promoter fragments are as follows: sense, 5′ CTCCCTCCCAGCCTGCCCATCTT (SEQ ID NO: 3); antisense, 5′ ACTGCCCACCATTTCCCCGTTTTG (SEQ ID NO: 4) (annealing at 61° C.). The relative enrichment of H3K4me2 for control samples is set to a value of 1.\nChromatin Immunoprecipitation (ChIP): CHIP analysis is performed using EZ-chip kit (Millipore) according to the manufacturer's instruction. In brief, cells are exposed to 1% formaldehyde to cross-link proteins, and two million cells are used for each CHIP assay. Antibody against H3 can be obtained from Abeam (Cambridge, Mass.) and antibody against H3K4me2 can be obtained from Millipore. Quantitative ChIP is performed using qPCR on the MyiQ single color real-time PCR machine. […]"}, "[7]": {"test_system": "HCT116 human colon tumors", "experiment": "Established tumors in nude mouse model", "type": "in vivo", "conditions": "PG-11144 alone, nude mice"}, "[8]": {"test_system": "Egr1 and Oct4 genes in P19 embryonal carcinoma cells", "conditions": "cited from earlier work"}}, "note": "Entries after “also recorded” stand apart in the source; their conditions may differ.", "data": [{"smiles": "NCCC[C@@](N)(C(=O)O)C(F)F", "note": "[D-DFMO]", "values": [{"measurement": "Ki of D-DFMO relative to the L-form", "setting": "ODC [1]", "value": "four fold lower"}, {"measurement": "Ki of D-DFMO relative to the mixture", "setting": "ODC [1]", "value": 3, "unit": "fold"}, {"measurement": "Inhibition of ODC activity", "setting": "ODC [2]", "value": "inhibitory"}, {"measurement": "Effect on auditory function (compound action potential, cochlear microphonic, cochlear potentials)", "setting": "[3]", "value": "no significant effects"}]}, {"smiles": "NCCC[C@](N)(C(=O)O)C(F)F", "note": "[DFMO, 2-difluoromethylornithine]", "values": [{"measurement": "Polyamines: Putresine", "setting": "HCT116 cells; DFMO 5 mM alone", "value": 0.0, "unit": "nmol/mg Protein"}, {"measurement": "Polyamines: Spermidine", "setting": "HCT116 cells; DFMO 5 mM alone", "value": 0.0, "unit": "nmol/mg Protein"}, {"measurement": "Polyamines: Spermine", "setting": "HCT116 cells; DFMO 5 mM alone", "value": 13.9, "unit": "nmol/mg Protein"}, {"measurement": "Growth of human tumors compared to control mice", "setting": "[4]", "value": "significantly decreased"}, {"measurement": "Number and size of colon adenomas and carcinomas", "setting": "[5]", "value": "reduces the number and size of colon adenomas and carcinomas"}]}, {"smiles": "NCCCC(N)(C(=O)O)C(F)F", "note": "(racemic) [D,L-DFMO]", "values": [{"measurement": "Inhibition of ODC activity", "setting": "ODC [2]", "value": "inhibitory"}]}, {"smiles": "CCNCCCCNCCCCNCCCCNCCCCNCC=CCNCCCCNCCCCNCCCCNCCCCNCC", "note": "(stereo in doubt) [PG-11144]", "values": [{"measurement": "Polyamines: Putresine", "setting": "HCT116 cells; PG-11144 0.5 μM, 24 h", "value": 4.7, "unit": "nmol/mg Protein"}, {"measurement": "Polyamines: Spermidine", "setting": "HCT116 cells; PG-11144 0.5 μM, 24 h", "value": 9.1, "unit": "nmol/mg Protein"}, {"measurement": "Polyamines: Spermine", "setting": "HCT116 cells; PG-11144 0.5 μM, 24 h", "value": 11.2, "unit": "nmol/mg Protein"}, {"measurement": "Polyamines: Putresine", "setting": "HCT116 cells; PG-11144 1 μM, 24 h", "value": 4.7, "unit": "nmol/mg Protein"}, {"measurement": "Polyamines: Spermidine", "setting": "HCT116 cells; PG-11144 1 μM, 24 h", "value": 8.4, "unit": "nmol/mg Protein"}, {"measurement": "Polyamines: Spermine", "setting": "HCT116 cells; PG-11144 1 μM, 24 h", "value": 10.1, "unit": "nmol/mg Protein"}, {"measurement": "Polyamines: Putresine", "setting": "HCT116 cells; PG-11144 2.5 μM, 24 h", "value": 3.8, "unit": "nmol/mg Protein"}, {"measurement": "Polyamines: Spermidine", "setting": "HCT116 cells; PG-11144 2.5 μM, 24 h", "value": 5.6, "unit": "nmol/mg Protein"}, {"measurement": "Polyamines: Spermine", "setting": "HCT116 cells; PG-11144 2.5 μM, 24 h", "value": 6.2, "unit": "nmol/mg Protein"}, {"measurement": "Polyamines: Putresine", "setting": "HCT116 cells; PG-11144 5 μM, 24 h", "value": 0.0, "unit": "nmol/mg Protein"}, {"measurement": "Polyamines: Spermidine", "setting": "HCT116 cells; PG-11144 5 μM, 24 h", "value": 4.2, "unit": "nmol/mg Protein"}, {"measurement": "Polyamines: Spermine", "setting": "HCT116 cells; PG-11144 5 μM, 24 h", "value": 4.9, "unit": "nmol/mg Protein"}, {"measurement": "Polyamines: Putresine", "setting": "HCT116 cells; PG-11144 10 μM, 24 h", "value": 0.0, "unit": "nmol/mg Protein"}, {"measurement": "Polyamines: Spermidine", "setting": "HCT116 cells; PG-11144 10 μM, 24 h", "value": 4.1, "unit": "nmol/mg Protein"}, {"measurement": "Polyamines: Spermine", "setting": "HCT116 cells; PG-11144 10 μM, 24 h", "value": 6.4, "unit": "nmol/mg Protein"}, {"measurement": "SFRP2 expression", "setting": "SFRP2 in HCT116 cells; 2.5 μM PG-11144 alone", "value": "does not lead to increased SFRP2 expression"}, {"measurement": "SFRP2 re-expression, synergy with DFMO (dose response)", "setting": "SFRP2 in HCT116 cells; 5 μM PG-11144 with 5 mM DFMO", "value": "greatest synergy with DFMO"}, {"measurement": "SFRP2 expression (dose response)", "setting": "SFRP2 in HCT116 cells; PG-11144 concentrations higher than 5 μM with 5 mM DFMO", "value": "less SFRP2 expression"}, {"measurement": "Promoter H3K4me2 levels (SFRP2 promoter, ChIP)", "setting": "[6]", "value": "does not lead to"}, {"measurement": "Antitumor activity on established tumors", "setting": "[7]", "value": "effective in treating established tumors; also recorded: effective in shrinking established HCT116 human colon tumors"}]}, {"smiles": "N[C@@H]1C[C@H]1c1ccccc1", "note": "[tranylcypromine, (1R,2S)-2-phenylcyclopropan-1-amine]", "values": [{"measurement": "Effect on Egr1 and Oct4 gene transcription", "setting": "[8]", "value": "transcriptional de-repression"}]}, {"smiles": "NCCC[C@](N)(C(=O)O)C(F)F", "note": "[L-DFMO]", "values": [{"measurement": "Inhibition of ODC activity", "setting": "ODC [2]", "value": "inhibitory"}, {"measurement": "Effect on auditory function (compound action potential, cochlear microphonic, cochlear potentials)", "setting": "[3]", "value": "significant disruption of normal cochlear potentials"}]}]}
